Experimental data published in patent publication US8455544B2, “Synthetic triterpenoids and methods of use in the treatment of disease” (Reata Pharmaecuticals, Inc., priority 2008, dated 2013).

Columns and labels:
[1] = tested on: cisplatin-induced renal toxicity; assay: Rat cisplatin-induced acute renal injury; assay type: in vivo
Protocol: FIGS. 2a-c—RTA 402 reduces cisplatin-induced renal toxicity. Rats were administered RTA 402 at 10 mg/kg or simply the vehicle (sesame oil) every day by oral gavage beginning on Day −1. On Day 0, the rats received an intravenous injection of cisplatin at 6 mg/kg. Blood samples were drawn on the indicated days and the levels of creatinine (FIG. 2a) and blood urea nitrogen (BUN) (FIG. 2b) were measured as markers of renal damage. A statistically significant difference was observed between the vehicle-treated and RTA 402-treated groups on Day 3 (creatinine) and Day 5 (creatinine and BUN). (FIG. 2c) Less damage to the proximal tubules is observed in RTA 402-treated animals compared to vehicle-treated animals.
In another model of acute renal injury, rats were injected intravenously with the antineoplastic agent cisplatin. In humans, nephrotoxicity is a dose-limiting side effect of treatment with cisplatin. Cisplatin-induced damage to the proximal tubules is thought to be mediated by increased inflammation, oxidative stress, and apoptosis (Yao et al., 2007). Rats treated with a single dose of cisplatin at 6 mg/kg developed renal insufficiency as measured by increased blood levels of creatinine and BUN.

[2] = Serum creatinine in toxicology study, dogs; assay type: in vivo, beagle dogs; details: oral, daily for three months
Protocol: (§1) FIGS. 3a-d—RTA 402 reduces serum creatinine levels in monkeys, dogs, and rats. (FIG. 3a) Cynomolgus monkeys were administered RTA 402 orally at the indicated doses once daily for 28 days. The percent reduction of serum creatinine on Day 28 in RTA 402-treated monkeys relative to vehicle-treated control monkeys is shown. (FIG. 3b) RTA 402 was administered orally to beagle dogs at the indicated doses daily for three months. Control animals received vehicle (sesame oil). The percent change in serum creatinine at the three-month time point relative to baseline is shown. (FIG. 3c) Sprague-Dawley rats were administered RTA 402 orally at the indicated doses once daily for a period of one month. The percent reduction of serum creatinine at study completion in RTA 402-treated rats relative to vehicle-treated control rats is shown. (FIG. 3d) Sprague-Dawley rats were administered the amorphous form of RTA 402 orally at the indicated doses once daily for a period of three months. The percent reduction of serum creatinine at study completion in RTA 402-treated rats relative to vehicle-treated control rats is shown. […] For example, a reading of −15 on this axis indicates a 15% reduction in serum creatinine.
(§2) Serum creatinine has been measured in several animal species treated with RTA 402 in the course of toxicology studies. […]

[3] = Serum creatinine in toxicology studies, rats; assay type: in vivo, Sprague-Dawley rats; details: oral, once daily, one month (crystalline) or three months (amorphous form)
Protocol: as §1, §2

[4] = tested on: patients with pancreatic cancer; assay: Study of RTA 402 in combination with gemcitabine in patients with pancreatic cancer: eGFR; assay type: in vivo, human; set-up: unit not given here
Protocol: FIG. 5—RTA 402 increases GFR in human patients with cancer. Estimated glomerular filtration rate (eGFR) was measured in RTA 402-treated patients enrolled in a multi-month clinical trial for the treatment of cancer. All patients (n=11) dosed through six months were included in the analysis. The dosing information for these patients is provided in Example 5, below.
Some of these patients were enrolled in the Phase I study, whereas others were enrolled in a study of RTA 402 (in combination with gemcitabine) in patients with pancreatic cancer.

[5] = tested on: patients with diabetic nephropathy; assay: Hyperinsulinemic euglycemic clamp test, Phase II study; assay type: in vivo, human; details: after the 28 day treatment
[6] = tested on: NQO1 in Hepa1c1c7 murine hepatoma cells; details: concentration required to induce a two-fold increase in expression of NQO1, Hepa1c1c7 cells; cited from earlier work
[7] = 10 mg/kg oral gavage daily from one day prior to cisplatin 6 mg/kg i.v.

## COC(=O)[C@]12CCC(C)(C)C[C@H]1[C@H]1C(=O)C=C3[C@@]4(C)C=C(C#N)C(=O)C(C)(C)[C@@H]4CC[C@@]3(C)[C@]1(C)CC2 [RTA 402, methyl-2-cyano-3,12-dioxooleana-1,9-dien-28-oic acid]
[1]; 10 mg/kg oral gavage daily
  Extent of proximal tubule damage (histological evaluation) compared to vehicle: improvement
[1]; [7]
  Blood levels of BUN: significantly reduced
  Blood levels of creatinine: significantly reduced
[2]
  Serum creatinine levels relative to baseline: Significant reductions
[3]
  Serum creatinine levels relative to control animals: Significant reductions
[4]; Pt 1001, dose 150 mg, cycle 1, BL 68.8
  eGFR: 78.9
[4]; Pt 1001, dose 150 mg, cycle 2, BL 68.8
  eGFR: 109.9
[4]; Pt 1001, dose 150 mg, cycle 3, BL 68.8
  eGFR: 135.7
[4]; Pt 1001, dose 150 mg, cycle 4, BL 68.8
  eGFR: 175.5
[4]; Pt 1001, dose 150 mg, cycle 5, BL 68.8
  eGFR: 175.5
[4]; Pt 1001, dose 150 mg, cycle 6, BL 68.8
  eGFR: 135.7
[4]; Pt 1104, dose 300/150 mg, cycle 1, BL 67.3
  eGFR: 95.7
[4]; Pt 1104, dose 300/150 mg, cycle 2, BL 67.3
  eGFR: 71.6
[4]; Pt 1104, dose 300/150 mg, cycle 3, BL 67.3
  eGFR: 141.2
[4]; Pt 1104, dose 300/150 mg, cycle 4, BL 67.3
  eGFR: 95.7
[4]; Pt 1104, dose 300/150 mg, cycle 5, BL 67.3
  eGFR: 114.4
[4]; Pt 1104, dose 300/150 mg, cycle 6, BL 67.3
  eGFR: 114.4
[4]; Pt 1105, dose 300 mg, cycle 1, BL 82.4
  eGFR: 106.6
[4]; Pt 1105, dose 300 mg, cycle 2, BL 82.4
  eGFR: 89.3
[4]; Pt 1105, dose 300 mg, cycle 3, BL 82.4
  eGFR: 106.6
[4]; Pt 1105, dose 300 mg, cycle 4, BL 82.4
  eGFR: 106.6
[4]; Pt 1105, dose 300 mg, cycle 5, BL 82.4
  eGFR: 131.6
[4]; Pt 1105, dose 300 mg, cycle 6, BL 82.4
  eGFR: 170.3
[4]; Pt 1106, dose 300 mg, cycle 1, BL 89.0
  eGFR: 106.3
[4]; Pt 1106, dose 300 mg, cycle 2, BL 89.0
  eGFR: 106.3
[4]; Pt 1106, dose 300 mg, cycle 3, BL 89.0
  eGFR: 106.3
[4]; Pt 1106, dose 300 mg, cycle 4, BL 89.0
  eGFR: 131.2
[4]; Pt 1106, dose 300 mg, cycle 5, BL 89.0
  eGFR: 131.2
[4]; Pt 1106, dose 300 mg, cycle 6, BL 89.0
  eGFR: 131.2
[5]
  Glucose disposal rate (GDR): improvements
[5]; more severely impaired patients (GDR<4), p≦0.02
  Glucose disposal rate (GDR): statistically significant improvements
[6]
  NQO1 CD: 1.0 nM
